Assay results reported in the NIST ThermoML archive (doi:10.1021/je034048e).
± gives the expanded uncertainty stated by the source.

Key:
[1] = for molar entropy: 101.33 kPa, Small (less than 1 g) adiabatic calorimetry
[2] = Molar enthalpy of transition or fusion; conditions: Crystal; Adiabatic calorimetry

CCCCCCCC/C=C/CCCCCCCC(=O)OCC(COC(=O)CCCCCCC/C=C/CCCCCCCC)OC(=O)CCCCCCC/C=C/CCCCCCCC [trielaidin]
[1]
Conditions	Triple point temperature [K]	molar entropy [J/K/mol]
20 K, Crystal	–	26.56 ± 8.9
20 K, Metastable crystal	–	61.98 ± 8.9
25 K, Crystal	–	44.27 ± 8.9
25 K, Metastable crystal	–	88.54 ± 8.9
30 K, Crystal	–	70.83 ± 8.9
30 K, Metastable crystal	–	115.11 ± 8.9
35 K, Crystal	–	97.4 ± 8.9
35 K, Metastable crystal	–	141.67 ± 8.9
40 K, Crystal	–	132.81 ± 8.9
40 K, Metastable crystal	–	177.09 ± 8.9
45 K, Crystal	–	168.23 ± 8.9
45 K, Metastable crystal	–	212.5 ± 8.9
50 K, Crystal	–	194.8 ± 8.9
50 K, Metastable crystal	–	239.07 ± 8.9
55 K, Crystal	–	230.21 ± 8.9
55 K, Metastable crystal	–	274.48 ± 8.9
60 K, Crystal	–	265.63 ± 8.9
60 K, Metastable crystal	–	309.9 ± 8.9
65 K, Crystal	–	301.05 ± 8.9
65 K, Metastable crystal	–	345.32 ± 8.9
70 K, Crystal	–	327.61 ± 8.9
70 K, Metastable crystal	–	380.74 ± 8.9
75 K, Crystal	–	363.03 ± 8.9
75 K, Metastable crystal	–	416.15 ± 18
80 K, Crystal	–	398.44 ± 8.9
80 K, Metastable crystal	–	451.57 ± 18
85 K, Crystal	–	433.86 ± 18
85 K, Metastable crystal	–	486.99 ± 18
90 K, Crystal	–	460.42 ± 18
90 K, Metastable crystal	–	513.55 ± 18
95 K, Crystal	–	495.84 ± 18
95 K, Metastable crystal	–	548.97 ± 18
100 K, Crystal	–	531.26 ± 18
100 K, Metastable crystal	–	584.39 ± 18
105 K, Crystal	–	557.82 ± 18
105 K, Metastable crystal	–	619.8 ± 18
110 K, Crystal	–	593.24 ± 18
110 K, Metastable crystal	–	646.37 ± 18
120 K, Crystal	–	646.37 ± 18
120 K, Metastable crystal	–	708.35 ± 18
130 K, Crystal	–	708.35 ± 18
130 K, Metastable crystal	–	770.33 ± 27
140 K, Crystal	–	770.33 ± 27
140 K, Metastable crystal	–	832.31 ± 27
150 K, Crystal	–	823.45 ± 27
150 K, Metastable crystal	–	894.29 ± 27
160 K, Crystal	–	876.58 ± 27
160 K, Metastable crystal	–	947.41 ± 27
170 K, Crystal	–	929.7 ± 27
170 K, Metastable crystal	–	1009.4 ± 35
180 K, Crystal	–	982.83 ± 27
180 K, Metastable crystal	–	1062.5 ± 35
190 K, Crystal	–	1036 ± 35
190 K, Metastable crystal	–	1124.5 ± 35
200 K, Crystal	–	1089.1 ± 35
200 K, Metastable crystal	–	1177.6 ± 35
210 K, Crystal	–	1142.2 ± 35
210 K, Metastable crystal	–	1239.6 ± 35
220 K, Crystal	–	1186.5 ± 35
220 K, Metastable crystal	–	1301.6 ± 35
230 K, Crystal	–	1239.6 ± 35
230 K, Metastable crystal	–	1363.6 ± 44
240 K, Crystal	–	1292.7 ± 35
240 K, Metastable crystal	–	1425.5 ± 44
250 K, Crystal	–	1337 ± 44
250 K, Metastable crystal	–	1487.5 ± 44
260 K, Crystal	–	1390.1 ± 44
260 K, Metastable crystal	–	1549.5 ± 44
270 K, Crystal	–	1443.3 ± 44
270 K, Metastable crystal	–	1611.5 ± 53
280 K, Crystal	–	1496.4 ± 44
280 K, Metastable crystal	–	1673.5 ± 53
288 K, Crystal	–	1531.8 ± 44
288 K, Metastable crystal	–	1726.6 ± 53
290 K, Crystal	–	1549.5 ± 44
298.15 K, Crystal	–	1593.8 ± 44
300 K, Crystal	–	1602.6 ± 53
310 K, Crystal	–	1655.8 ± 53
314.83 K, Crystal	–	1673.5 ± 53
314.83 K, Liquid	–	2204.7 ± 71
320 K, Liquid	–	2213.6 ± 71
330 K, Liquid	–	2275.6 ± 71
Crystal, Adiabatic calorimetry	314.83 ± 1	–

Conditions	Molar enthalpy of transition or fusion [kcal/mol]
[2]	37.5 ± 0.765
